Data: patent US8916551B2, “Heterocyclic compound and use thereof” (Takeda Pharmaceutical Company Limited, priority 2010, dated 2014)

Molecular target: T1, AMPA receptor (human GluR1 flip/stargazin expressed in CHO-K1 cells) (Homo sapiens, UniProt P42261)
T1 construct: expressed in transfected cells; host or cells: CHO-K1
Experiment: AMPA receptor function enhancing activity using calcium influx as index
Format: cell-based
Settings: 100% = 3 mM glutamic acid + 300 μM cyclothiazide, 0% = 3 mM glutamic acid only
In short: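 CHO-K1 clone stably co-expressing human GluR1 flip and stargazin, loaded with Calcium 4 dye plus probenecid. Compound at 30 μM was added with glutamate (3 mM final) and fluorescence change followed over 3 min. Activity is expressed as % of the 3 mM glutamate plus 300 μM cyclothiazide response, with glutamate alone as 0%.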

[1] = test compound 30 μM with 3 mM glutamic acid, change in fluorescence level in 3 min
[2] = test compound 30 μM with glutamic acid final 3 mM, change in fluorescence in 3 min

T1 sequence (P42261 19-906 isoform P42261-2 limits assumed): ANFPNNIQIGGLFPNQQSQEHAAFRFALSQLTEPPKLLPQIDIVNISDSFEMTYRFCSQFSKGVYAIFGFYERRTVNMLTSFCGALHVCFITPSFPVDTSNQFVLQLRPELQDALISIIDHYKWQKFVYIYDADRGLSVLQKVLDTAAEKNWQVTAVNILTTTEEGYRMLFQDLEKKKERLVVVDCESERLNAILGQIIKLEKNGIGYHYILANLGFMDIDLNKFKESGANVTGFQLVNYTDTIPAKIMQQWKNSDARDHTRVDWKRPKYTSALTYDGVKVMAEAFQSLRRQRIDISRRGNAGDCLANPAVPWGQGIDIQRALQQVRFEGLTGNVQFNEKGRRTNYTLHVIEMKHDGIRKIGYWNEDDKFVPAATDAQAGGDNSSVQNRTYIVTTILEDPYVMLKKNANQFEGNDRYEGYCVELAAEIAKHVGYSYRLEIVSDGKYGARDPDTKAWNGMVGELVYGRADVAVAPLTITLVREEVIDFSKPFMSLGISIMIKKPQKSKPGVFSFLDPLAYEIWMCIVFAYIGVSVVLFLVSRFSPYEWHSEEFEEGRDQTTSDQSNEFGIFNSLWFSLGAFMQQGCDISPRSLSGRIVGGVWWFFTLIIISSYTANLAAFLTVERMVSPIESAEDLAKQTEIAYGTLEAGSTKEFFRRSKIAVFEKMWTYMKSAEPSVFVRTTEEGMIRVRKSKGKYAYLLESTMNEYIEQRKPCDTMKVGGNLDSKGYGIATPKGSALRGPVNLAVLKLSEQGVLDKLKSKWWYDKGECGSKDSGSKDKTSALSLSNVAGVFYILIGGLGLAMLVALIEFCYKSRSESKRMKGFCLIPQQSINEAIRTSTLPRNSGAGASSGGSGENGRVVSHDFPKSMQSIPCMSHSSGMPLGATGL
T1 sequence (Q9Y698 whole entry partner): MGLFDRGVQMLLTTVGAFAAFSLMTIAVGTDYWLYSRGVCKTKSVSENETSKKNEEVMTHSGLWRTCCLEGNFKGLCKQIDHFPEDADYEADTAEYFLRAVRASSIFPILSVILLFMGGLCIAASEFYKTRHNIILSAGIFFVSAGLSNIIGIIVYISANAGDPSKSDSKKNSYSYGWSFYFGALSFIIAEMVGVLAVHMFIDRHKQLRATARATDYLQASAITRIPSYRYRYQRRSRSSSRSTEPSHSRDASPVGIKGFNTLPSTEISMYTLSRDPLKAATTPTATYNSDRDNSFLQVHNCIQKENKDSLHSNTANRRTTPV

Row | SMILES | activity (%) [1] [%] | activity (%) [2] [%]
1 | O=S1(=O)CCN2CCC[C@@H](c3ccc(Oc4cccc(Cl)c4)cc3)C2=N1 [Example 203, (9S)-9-[4-(3-chlorophenoxy)phenyl]-3,4,6,7,8,9-hexahydropyrido[2,1-c][1,2,4]thiadiazine 2,2-dioxide] | 85 | –
2 | O=S1(=O)CCN2C=CN=C(c3ccc(Oc4ccccc4)cc3)C2=N1 [Example 210, 9-(4-phenoxyphenyl)-3,4-dihydropyrazino[2,1-c][1,2,4]thiadiazine 2,2-dioxide] | 82 | –
3 | O=S1(=O)CCN2CCNC(c3ccc(Oc4ccccc4)cc3)C2=N1 (stereo not drawn) [Example 211, 9-(4-phenoxyphenyl)-3,4,6,7,8,9-hexahydropyrazino[2,1-c][1,2,4]thiadiazine 2,2-dioxide] | 71 | –
4 | Cc1cc(Cl)ccc1Oc1ccc([C@@H]2CCCN3CCS(=O)(=O)N=C23)cc1 [Example 215, (9S)-9-[4-(4-chloro-2-methylphenoxy)phenyl]-3,4,6,7,8,9-hexahydropyrido[2,1-c][1,2,4]thiadiazine 2,2-dioxide] | 67 | –
5 | O=S1(=O)CCN2CCC[C@@H](c3ccc(-c4ccccc4Cl)cc3)C2=N1 [Example 220, (9S)-9-(2′-chlorobiphenyl-4-yl)-3,4,6,7,8,9-hexahydropyrido[2,1-c][1,2,4]thiadiazine 2,2-dioxide] | 93 | –
6 | O=S1(=O)CCN2CCCC(c3ccc(-c4ccccc4Cl)cc3)C2=N1 (stereo not drawn) [Example 221, 9-(2′-chlorobiphenyl-4-yl)-3,4,6,7,8,9-hexahydropyrido[2,1-c][1,2,4]thiadiazine 2,2-dioxide] | 96 | –
7 | O=S1(=O)CCN2CCC[C@@H](c3ccc(-c4ccc(F)c(Cl)c4)cc3)C2=N1 [Example 226, (9S)-9-(3′-chloro-4′-fluorobiphenyl-4-yl)-3,4,6,7,8,9-hexahydropyrido[2,1-c][1,2,4]thiadiazine 2,2-dioxide] | 79 | –
8 | O=S1(=O)CCN2CCC[C@@H](c3ccc(Oc4ccc(Br)cc4)cc3)C2=N1 [Example 228, (9S)-9-[4-(4-bromophenoxy)phenyl]-3,4,6,7,8,9-hexahydropyrido[2,1-c][1,2,4]thiadiazine 2,2-dioxide] | 78 | –
9 | CC(F)(F)c1ccc(C2CCCN3CCS(=O)(=O)N=C23)cc1 (stereo not drawn) [Example 230, 9-[4-(1,1-difluoroethyl)phenyl]-3,4,6,7,8,9-hexahydropyrido[2,1-c][1,2,4]thiadiazine 2,2-dioxide] | 59 | –
10 | CC(F)(F)c1ccc(C2CCCN3CCS(=O)(=O)N=C23)cc1 (stereo not drawn) [Example 231, 9-[4-(1,1-difluoroethyl)phenyl]-3,4,6,7,8,9-hexahydropyrido[2,1-c][1,2,4]thiadiazine 2,2-dioxide] | 78 | –
11 | CC(F)(F)c1ccc(Oc2ccc(C3CCCN4CCS(=O)(=O)N=C34)cc2)cc1 (stereo not drawn) [Example 235, 9-{4-[4-(1,1-difluoroethyl)phenoxy]phenyl}-3,4,6,7,8,9-hexahydropyrido[2,1-c][1,2,4]thiadiazine 2,2-dioxide] | 84 | –
12 | O=S1(=O)CCN2C=CC=C(Oc3ccc4c(c3)CCCC4)C2=N1 [Example 237, 9-(5,6,7,8-tetrahydronaphthalen-2-yloxy)-3,4-dihydropyrido[2,1-c][1,2,4]thiadiazine 2,2-dioxide] | 66 | –
13 | O=S1(=O)CCN2CCCC(Oc3ccc4c(c3)CCCC4)C2=N1 (stereo not drawn) [Example 238, 9-(5,6,7,8-tetrahydronaphthalen-2-yloxy)-3,4,6,7,8,9-hexahydropyrido[2,1-c][1,2,4]thiadiazine 2,2-dioxide] | 87 | –
14 | O=S1(=O)CCN2C=CC=C(c3ccc(-n4cccn4)cc3)C2=N1 [Example 239, 9-[4-(1H-pyrazol-1-yl)phenyl]-3,4-dihydropyrido[2,1-c][1,2,4]thiadiazine 2,2-dioxide] | 88 | –
15 | O=C1CCC(Oc2ccc(C3=CC=CN4CCS(=O)(=O)N=C34)cc2)CC1 [Example 244, 4-[4-(2,2-dioxido-3,4-dihydropyrido[2,1-c][1,2,4]thiadiazin-9-yl)phenoxy]cyclohexanone] | 76 | –
16 | Cc1cccc(Oc2ccc(C3=CC=CN4CCS(=O)(=O)N=C34)cc2)n1 [Example 246, 9-{4-[(6-methylpyridin-2-yl)oxy]phenyl}-3,4-dihydropyrido[2,1-c][1,2,4]thiadiazine 2,2-dioxide] | 73 | –
17 | O=S1(=O)CCN2C=C(Cl)C=C(c3ccc(OCC4CCCO4)cc3)C2=N1 (stereo not drawn) [Example 251, 7-chloro-9-[4-(tetrahydrofuran-2-ylmethoxy)phenyl]-3,4-dihydropyrido[2,1-c][1,2,4]thiadiazine 2,2-dioxide] | 81 | –
18 | O=S1(=O)CCN2C=C(Cl)C=C(c3ccc(OCC4CCOCC4)cc3)C2=N1 [Example 253, 7-chloro-9-[4-(tetrahydro-2H-pyran-4-ylmethoxy)phenyl]-3,4-dihydropyrido[2,1-c][1,2,4]thiadiazine 2,2-dioxide] | 80 | –

Row | SMILES | activity (%) [1] [%] | activity (%) [2] [%]
19 | O=S1(=O)CCN2C=CC=C(c3ccc(Oc4ccc(C(F)(F)F)nc4)cc3)C2=N1 [Example 254, 9-(4-{[6-(trifluoromethyl)pyridin-3-yl]oxy}phenyl)-3,4-dihydropyrido[2,1-c][1,2,4]thiadiazine 2,2-dioxide] | 81 | –
20 | O=S1(=O)CCN2C=CC=C(c3ccc(Oc4cnccc4C(F)(F)F)cc3)C2=N1 [Example 255, 9-(4-{[4-(trifluoromethyl)pyridin-3-yl]oxy}phenyl)-3,4-dihydropyrido[2,1-c][1,2,4]thiadiazine 2,2-dioxide] | 84 | –
21 | O=S1(=O)CCN2C=C(Cl)C=C(c3ccc(Oc4ccc(C(F)(F)F)nc4)cc3)C2=N1 [Example 256, 7-chloro-9-(4-{[6-(trifluoromethyl)pyridin-3-yl]oxy}phenyl)-3,4-dihydropyrido[2,1-c][1,2,4]thiadiazine 2,2-dioxide] | 86 | –
22 | O=S1(=O)CCN2C=CC=C(c3ccc(Oc4ccnc(C(F)(F)F)c4)cc3)C2=N1 [Example 257, 9-(4-{[2-(trifluoromethyl)pyridin-4-yl]oxy}phenyl)-3,4-dihydropyrido[2,1-c][1,2,4]thiadiazine 2,2-dioxide] | 84 | –
23 | O=S1(=O)CCN2C=CC=C(c3ccc(Oc4ccccc4)cn3)C2=N1 [Example 258, 9-(5-phenoxypyridin-2-yl)-3,4-dihydropyrido[2,1-c][1,2,4]thiadiazine 2,2-dioxide] | 79 | –
24 | O=S1(=O)CCN2C=CC=C(c3ccc(Oc4cncc(C(F)(F)F)c4)cc3)C2=N1 [Example 259, 9-(4-{[5-(trifluoromethyl)pyridin-3-yl]oxy}phenyl)-3,4-dihydropyrido[2,1-c][1,2,4]thiadiazine 2,2-dioxide] | 90 | –
25 | O=S1(=O)CCN2C=C(Cl)C=C(c3ccc(Oc4cncc(C(F)(F)F)c4)cc3)C2=N1 [Example 260, 7-chloro-9-(4-{[5-(trifluoromethyl)pyridin-3-yl]oxy}phenyl)-3,4-dihydropyrido[2,1-c][1,2,4]thiadiazine 2,2-dioxide] | 91 | –
26 | O=S1(=O)CCN2CCCC(c3ccc(OC4CCCCC4)cc3)C2=N1 (stereo not drawn) [Example 261, 9-[4-(cyclohexyloxy)phenyl]-3,4,6,7,8,9-hexahydropyrido[2,1-c][1,2,4]thiadiazine 2,2-dioxide] | 72 | –
27 | O=S1(=O)CCN2C=CC=C(c3ccc(OCC(F)(F)F)cc3)C2=N1 [Example 264, 9-[4-(2,2,2-trifluoroethoxy)phenyl]-3,4-dihydropyrido[2,1-c][1,2,4]thiadiazine 2,2-dioxide] | 80 | –
28 | O=S1(=O)CCN2C=CC=C(c3ccc(Oc4ccccc4C(F)(F)F)cc3)C2=N1 [Example 266, 9-{4-[2-(trifluoromethyl)phenoxy]phenyl}-3,4-dihydropyrido[2,1-c][1,2,4]thiadiazine 2,2-dioxide] | 84 | –
29 | O=C1CCCCC1Oc1ccc(C2=CC=CN3CCS(=O)(=O)N=C23)cc1 (stereo not drawn) [Example 274, 2-[4-(2,2-dioxido-3,4-dihydropyrido[2,1-c][1,2,4]thiadiazin-9-yl)phenoxy]cyclohexanone] | 85 | –
30 | O=S1(=O)CCN2C=CC=C(c3ccc(-c4ccccc4)nc3)C2=N1 [Example 282, 9-(6-phenylpyridin-3-yl)-3,4-dihydropyrido[2,1-c][1,2,4]thiadiazine 2,2-dioxide] | 84 | –
31 | CC1(C)Cc2cc(C3=CC=CN4CCS(=O)(=O)N=C34)ccc2C1=O [Example 287, 5-(2,2-dioxido-3,4-dihydropyrido[2,1-c][1,2,4]thiadiazin-9-yl)-2,2-dimethyl-2,3-dihydro-1H-inden-1-one] | 73 | –
32 | O=S1(=O)CCN2CCCC(c3ccc(-n4cccn4)cc3)C2=N1 (stereo not drawn) [Example 290, 9-[4-(1H-pyrazol-1-yl)phenyl]-3,4,6,7,8,9-hexahydropyrido[2,1-c][1,2,4]thiadiazine 2,2-dioxide] | 79 | –
33 | CCCCn1ccc2cc(C3=CC=CN4CCS(=O)(=O)N=C34)ccc21 [Example 292, 9-(1-butyl-1H-indol-5-yl)-3,4-dihydropyrido[2,1-c][1,2,4]thiadiazine 2,2-dioxide] | 90 | –
34 | CC(C)Cn1ccc2cc(C3=CC=CN4CCS(=O)(=O)N=C34)ccc21 [Example 293, 9-[1-(2-methylpropyl)-1H-indol-5-yl]-3,4-dihydropyrido[2,1-c][1,2,4]thiadiazine 2,2-dioxide] | – | 80
35 | CCCCn1ccc2cc(C3CCCN4CCS(=O)(=O)N=C34)ccc21 (stereo not drawn) [Example 294, 9-(1-butyl-1H-indol-5-yl)-3,4,6,7,8,9-hexahydropyrido[2,1-c][1,2,4]thiadiazine 2,2-dioxide] | – | 82
36 | O=S1(=O)CCN2CCCC(c3ccc4c(ccn4CCc4ccc(F)cc4)c3)C2=N1 (stereo not drawn) [Example 295, 9-{1-[2-(4-fluorophenyl)ethyl]-1H-indol-5-yl}-3,4,6,7,8,9-hexahydropyrido[2,1-c][1,2,4]thiadiazine 2,2-dioxide] | – | 64
